# Assay results reported in patent US10781224B2, “Bis(oxymethyl)phosphinic acid and biogenic metal salts thereof as regulators of plant growth and development” (priority 2016, dated 2020).
# Tested on: rice (Diamant variety)
# Assay: Rice seed treatment with BHMPA salts: germinating power
# Format: in vivo
# Conditions: for Length, root / Length, root, + % to control / Length, sprout / Length, sprout, + % to control / Mass, dry, root / Mass, dry, root, + % to control / Mass, dry, sprout / Mass, dry, sprout, + % to control / Mass, wet, root / Mass, wet, root, + % to control / Mass, wet, sprout / Mass, wet, sprout, + % to control: rice seed treatment
# How it was run: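 Seeds (50 per Petri dish on two layers of filter paper) soaked 1 h in BHMPA or its Ca, Mg, Na, Co, Mn, Cu or Zn salts at 1·10^−6-1·10^−12%, with water controls. Germination energy read on day 4, germination on day 8 (wheat) or day 7 (rice, corn), as % means of four replicates. Germinating power taken as root and sprout length plus wet and dry mass per 100 seedlings.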
# [1] = comparison with Melaphen (Table XXXIII), solution 1 · 10^−9%
# [2] = experimental solution 1 · 10^−6%
# [3] = experimental solution 1 · 10^−7%
# [4] = experimental solution 1 · 10^−8%
# [5] = experimental solution 1 · 10^−9%
# [6] = experimental solution 1 · 10^−10%
# [7] = experimental solution 1 · 10^−11%
# [8] = experimental solution 1 · 10^−12%
# [9] = rice, vs control, 1·10^−9% solution
smiles,measurement,setting,value
"O=P([O-])(CO)CO.O=P([O-])(CO)CO.[Zn+2] [Zn-salt, Zinc BHMPA Salt]",optimum concentration for treating rice seeds before sowing,rice,1·10^−9%
same,"Length, root",[1],7.5 cm
same,"Length, root, + % to control",[1],56%
same,"Length, sprout",[1],4.8 cm
same,"Length, sprout, + % to control",[1],48%
same,"Mass, dry, root",[1],0.28 g/100 plantlings
same,"Mass, dry, root, + % to control",[1],33%
same,"Mass, dry, sprout",[1],0.32 g/100 plantlings
same,"Mass, dry, sprout, + % to control",[1],28%
same,"Mass, wet, root",[1],1.54 g/100 plantlings
same,"Mass, wet, root, + % to control",[1],57%
same,"Mass, wet, sprout",[1],2.57 g/100 plantlings
same,"Mass, wet, sprout, + % to control",[1],70%
same,"Length, root",[2],6.2 cm
same,"Length, root, + % to control",[2],15%
same,"Length, sprout",[2],2.6 cm
same,"Length, sprout, + % to control",[2],8%
same,"Mass, dry, root",[2],0.19 g/100 plantlings
same,"Mass, dry, root, + % to control",[2],12%
same,"Mass, dry, sprout",[2],0.23 g/100 plantlings
same,"Mass, dry, sprout, + % to control",[2],4.5%
same,"Mass, wet, root",[2],1.04 g/100 plantlings
same,"Mass, wet, root, + % to control",[2],24%
same,"Mass, wet, sprout",[2],1.81 g/100 plantlings
same,"Mass, wet, sprout, + % to control",[2],24%
same,"Length, root",[3],6.6 cm
same,"Length, root, + % to control",[3],22%
same,"Length, sprout",[3],2.8 cm
same,"Length, sprout, + % to control",[3],17%
same,"Mass, dry, root",[3],0.22 g/100 plantlings
same,"Mass, dry, root, + % to control",[3],29%
same,"Mass, dry, sprout",[3],0.27 g/100 plantlings
same,"Mass, dry, sprout, + % to control",[3],23%
same,"Mass, wet, root",[3],1.21 g/100 plantlings
same,"Mass, wet, root, + % to control",[3],44%
same,"Mass, wet, sprout",[3],2.10 g/100 plantlings
same,"Mass, wet, sprout, + % to control",[3],44%
same,"Length, root",[4],6.8 cm
same,"Length, root, + % to control",[4],26%
same,"Length, sprout",[4],3.1 cm
same,"Length, sprout, + % to control",[4],29%
same,"Mass, dry, root",[4],0.24 g/100 plantlings
same,"Mass, dry, root, + % to control",[4],41%
same,"Mass, dry, sprout",[4],0.28 g/100 plantlings
same,"Mass, dry, sprout, + % to control",[4],27%
same,"Mass, wet, root",[4],1.29 g/100 plantlings
same,"Mass, wet, root, + % to control",[4],53.5%
same,"Mass, wet, sprout",[4],2.27 g/100 plantlings
same,"Mass, wet, sprout, + % to control",[4],55%
same,"Length, root",[5],7.0 cm
same,"Length, root, + % to control",[5],30%
same,"Length, sprout",[5],3.6 cm
same,"Length, sprout, + % to control",[5],50%
same,"Mass, dry, root",[5],0.27 g/100 plantlings
same,"Mass, dry, root, + % to control",[5],59%
same,"Mass, dry, sprout",[5],0.33 g/100 plantlings
same,"Mass, dry, sprout, + % to control",[5],50%
same,"Mass, wet, root",[5],1.32 g/100 plantlings
same,"Mass, wet, root, + % to control",[5],57%
same,"Mass, wet, sprout",[5],2.31 g/100 plantlings
same,"Mass, wet, sprout, + % to control",[5],58%
same,"Length, root",[6],6.9 cm
same,"Length, root, + % to control",[6],28%
same,"Length, sprout",[6],3.2 cm
same,"Length, sprout, + % to control",[6],33%
same,"Mass, dry, root",[6],0.25 g/100 plantlings
same,"Mass, dry, root, + % to control",[6],47%
same,"Mass, dry, sprout",[6],0.31 g/100 plantlings
same,"Mass, dry, sprout, + % to control",[6],41%
same,"Mass, wet, root",[6],1.26 g/100 plantlings
same,"Mass, wet, root, + % to control",[6],50%
same,"Mass, wet, sprout",[6],2.17 g/100 plantlings
same,"Mass, wet, sprout, + % to control",[6],49%
same,"Length, root",[7],6.7 cm
same,"Length, root, + % to control",[7],24%
same,"Length, sprout",[7],2.8 cm
same,"Length, sprout, + % to control",[7],17%
same,"Mass, dry, root",[7],0.22 g/100 plantlings
same,"Mass, dry, root, + % to control",[7],29%
same,"Mass, dry, sprout",[7],0.29 g/100 plantlings
same,"Mass, dry, sprout, + % to control",[7],32%
same,"Mass, wet, root",[7],1.19 g/100 plantlings
same,"Mass, wet, root, + % to control",[7],42%
same,"Mass, wet, sprout",[7],2.09 g/100 plantlings
same,"Mass, wet, sprout, + % to control",[7],43%
same,"Length, root",[8],5.9 cm
same,"Length, root, + % to control",[8],9%
same,"Length, sprout",[8],2.7 cm
same,"Length, sprout, + % to control",[8],12.5%
same,"Mass, dry, root",[8],0.19 g/100 plantlings
same,"Mass, dry, root, + % to control",[8],12%
same,"Mass, dry, sprout",[8],0.25 g/100 plantlings
same,"Mass, dry, sprout, + % to control",[8],14%
same,"Mass, wet, root",[8],1.05 g/100 plantlings
same,"Mass, wet, root, + % to control",[8],25%
same,"Mass, wet, sprout",[8],1.70 g/100 plantlings
same,"Mass, wet, sprout, + % to control",[8],16%
same,dry mass of the roots increased by,[9],59%
same,dry mass of the sprouts increased by,[9],50%
same,length of the root increased by,[9],30%
same,length of the sprout increased by,[9],50%
same,wet mass of the roots increased by,[9],57%
same,wet mass of the sprouts increased by,[9],58%
